Results taken from US20140107143A1, “QUATERNARY OPIOID CARBOXAMIDES” (Rensselaer Polytechnic Institute, priority 2007, published 2014).
Where two headings read alike, the source gives them in different places.

What was measured:
[1] = test system: antinociception; settings: cited from earlier work; for duration of action: 1 mg/kg ip in mice
[2] = target: T1, human μ opioid receptor (Homo sapiens, UniProt P35372); assay: Opioid receptor binding assay, [3H]DAMGO (μ)
[3] = target: T2, human κ opioid receptor (Homo sapiens, UniProt P41145); assay: Opioid receptor binding assay, [3H]U69,593 (κ); settings: for K: δ / K: μ: ratio of Ki values
[4] = test system: μ opioid receptors; settings: cited from earlier work
[5] = test system: κ opioid receptors; settings: cited from earlier work
[6] = target: T3, human δ opioid receptor (Homo sapiens, UniProt P41143)
[7] = test system: morphine's blockade of PGE2-induced diarrhea; assay: PGE2 model of gut motility; type: in vivo, mice
Method: To assess the effects of novel, peripherally acting opioid antagonists, we used a PGE2 (a prostaglandin) model of gut motility. PGE2 induces diarrhea within 15 minutes of an intraperitoneal (IP) injection (0.1 mg/kg) in mice.
Mice (n=10/group) were given either an IP injection or oral (PO) administration (via gavage) of a novel opioid antagonist (0-3 mg/kg, IP; 0-30 mg/kg, PO) and placed in a Plexiglas pie cage (Braintree Scientific, Braintree, Mass.). Each pie cage holds up to 10 mice and is 21.5 cm in diameter and 7.5 cm in height. Individual chambers are 5 cm (base) and 9 cm (length). […] 30 minutes later mice were treated with PGE2 (0.1 mg/kg, IP) and again returned to the pie cage. During the final observation, the presence or absence of diarrhea was recorded 15 minutes following PGE2 administration. Mice were only tested once. Saline-saline (10 mL/kg, IP) and saline-morphine were the positive control groups and all results were compared to the saline-morphine treatment group. Data represent the percent of mice with PGE2-induced diarrhea at the time of the final observation.

[8] = test system: morphine-induced antinociception (tail flick); assay: Tail flick antinociception test; type: in vivo, mice; settings: for effect on response to morphine, tail flick: oral
Method: Antinociception to acute thermal stimuli was assessed using a commercially available tail flick apparatus (Columbus Instruments, Columbus, Ohio). The tail flick test is purported to be primarily a […] reflexive response assay. In this standard model, mice are gently restrained and their tail is placed over a thermal beam. Once the beam is turned on (instant on; 9.3 watts), the time required to reflexively flick the tail is recorded. The maximum response latency (MRL) was set to 10 seconds to avoid potential thermal injury associated with longer exposure times. If there is no response after 10 seconds, mice are removed and the maximum response latency (MRL; 10 s) is recorded.
Mice (n=10/group) were first tested in the tail flick test to determine a baseline response. […] The mice were administered different doses of an opioid antagonist (IP or PO, 60 minutes prior to testing in the tail flick test). […] All results are compared to the saline-morphine treatment group mean response latency.

[9] = test system: morphine-induced antinociception (hot plate); assay: Hot plate antinociception test; type: in vivo, mice
Method: Antinociception to acute thermal stimuli was assessed using a commercially available hot plate apparatus (Columbus Instruments, Columbus, Ohio). The hot plate test is purported to be a supraspinal assay of nociception. The hot plate procedure involves placing each mouse on a heated surface and activating a timer. Mice were placed individually on a hot plate (25.4 cm×25.4 cm surrounded by an acrylic box to prevent the animal from escaping); surface temperature=55° C.) and the response latency to lick either hind paw was recorded. The maximum response latency (MRL) was set to 60 seconds to avoid potential thermal injury associated with longer exposure times. The mouse is removed from the heated surface when it either licks a hind paw in response to the heat or after 60 seconds has elapsed. The latency to respond is recorded and the mouse is returned to its home cage.
Mice (n=10/group) were first tested to determine a baseline response. […] Mice were then administered different doses of an opioid antagonist (IP or PO, 60 minutes prior to testing on the hot plate test). […] All results are compared to the saline-morphine treatment group mean response latency.

[10] = target: T3, human δ opioid receptor; assay: biochemical
[11] = PK evaluation in rats (plasma, LC-MS/MS); type: in vivo; settings: oral administration, FIG. 4
Method: Animals were dosed with the example compound and blood samples were collected for 2 hours using the following method. Rats were briefly anesthetized with 1-2% isoflurane and blood samples (approximately […] of whole blood) from a lateral tail vein were collected into tubes containing EDTA. The tubes were centrifuged at 10K×g for 2 minutes to separate plasma. Plasma was pipetted into microcentrifuge vials and stored at −80° C. until plasma levels were determined by liquid chromatography-mass spectrometry/mass spectrometry (LC-MS/MS) (modification of Baranczewski et al., 2006). The lower limit of quantitation (LOQ) for these studies was 1.0 ng/mL and the coefficient of variation for the assay was <4.4%. The mean concentration of the example compound in plasma was calculated for each time point. […]
A bioanalytical assay was developed and qualified for measurement of the example compound in rat plasma. […] The intra-day accuracy and precision were evaluated by analysis of each 80 ng/mL, 40 ng/mL, and 8 ng/mL assay control (n=5 at each concentration) on the same day. Accuracy was calculated as a percentage ratio of measured concentration to nominal concentration and precision was expressed as the coefficient of variation. […] accuracy and precision were evaluated for each 80 ng/mL, 40 ng/mL, and 8 ng/mL assay control over 10 different runs (n=26 for each control sample). […]

[12] = target: T2, human κ opioid receptor; assay: [35S]GTPγS binding assay, kappa (compound alone / with U50,488); type: biochemical; set-up: expressed in transfected cells
From the text: Part 4. […] Binding was initiated by the addition of the membranes.

[13] = target: T1, human μ opioid receptor; assay: [35S]GTPγS binding assay, mu (compound alone / with DAMGO)
Method: In a final volume of 0.5 mL, 12 different concentrations of each test compound were incubated with 15 μg (κ), 10 μg (δ) or 7.5 μg (μ) of CHO cell membranes that stably expressed either the human κ or μ opioid receptor. The assay buffer consisted of 50 mM Tris-HCl, pH 7.4, 3 mM MgCl2, 0.2 mM EGTA, 3 μM GDP, and 100 mM NaCl. The final concentration of [35S]GTPγS was 0.080 nM. […] Binding was initiated by the addition of the membranes. […] Data are the mean Emax and EC50 values±S.E.M. from at least three separate experiments, performed in triplicate.

[14] = read-out: [3H]DAMGO (μ) Ki, CHO membranes, human receptor, mean ± SEM
[15] = read-out: [3H]U69,593 (K) Ki, CHO membranes, human receptor, mean ± SEM

T3 sequence (P41143 whole entry): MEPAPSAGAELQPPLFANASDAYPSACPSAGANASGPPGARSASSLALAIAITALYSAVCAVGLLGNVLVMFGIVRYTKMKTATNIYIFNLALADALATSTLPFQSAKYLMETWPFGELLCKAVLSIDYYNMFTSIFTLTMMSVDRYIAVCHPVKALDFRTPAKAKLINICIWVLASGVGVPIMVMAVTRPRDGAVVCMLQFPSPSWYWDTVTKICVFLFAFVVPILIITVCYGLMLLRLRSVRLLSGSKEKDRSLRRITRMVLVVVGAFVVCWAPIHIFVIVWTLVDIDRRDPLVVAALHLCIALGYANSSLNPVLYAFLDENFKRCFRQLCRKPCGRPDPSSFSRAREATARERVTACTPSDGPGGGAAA
T2 sequence (P41145 whole entry): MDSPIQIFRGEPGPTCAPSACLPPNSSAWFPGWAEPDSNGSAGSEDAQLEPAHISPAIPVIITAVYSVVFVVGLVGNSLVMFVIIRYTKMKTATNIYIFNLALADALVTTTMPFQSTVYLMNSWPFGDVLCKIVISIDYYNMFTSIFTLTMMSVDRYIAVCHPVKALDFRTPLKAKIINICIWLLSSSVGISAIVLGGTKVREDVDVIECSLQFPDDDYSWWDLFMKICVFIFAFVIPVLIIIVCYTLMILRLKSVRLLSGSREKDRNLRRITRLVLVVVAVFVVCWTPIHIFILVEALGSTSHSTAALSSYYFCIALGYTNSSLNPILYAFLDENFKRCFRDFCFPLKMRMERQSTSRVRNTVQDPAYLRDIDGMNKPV
T1 sequence (P35372 whole entry): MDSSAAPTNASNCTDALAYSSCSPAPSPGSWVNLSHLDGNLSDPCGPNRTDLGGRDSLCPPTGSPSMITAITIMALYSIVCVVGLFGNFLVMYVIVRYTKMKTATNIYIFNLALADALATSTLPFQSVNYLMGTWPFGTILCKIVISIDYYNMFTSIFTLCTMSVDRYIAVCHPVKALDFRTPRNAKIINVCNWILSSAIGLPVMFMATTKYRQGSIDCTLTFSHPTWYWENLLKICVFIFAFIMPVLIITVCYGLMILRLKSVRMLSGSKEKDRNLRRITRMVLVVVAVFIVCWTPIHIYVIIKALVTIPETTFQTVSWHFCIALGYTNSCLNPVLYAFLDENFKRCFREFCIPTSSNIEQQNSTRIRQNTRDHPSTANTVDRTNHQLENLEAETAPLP

C[C@H]1[C@H]2Cc3ccc(O)cc3[C@]1(C)CCN2CC1CC1 [cyclazocine]
duration of action [1]: 2 h

C[N+]1(CC2CC2)CC[C@]23c4c5ccc(O)c4O[C@H]2C(=O)CC[C@@]3(O)[C@H]1C5 (stereo partly shown) [Compound 2, Naltrexone Methiodide, reference compound]
Ki [2, 14]: 2 ± 0.27 nM | K: δ [3]: 143 | K: μ [3]: 0.32 | Ki [3, 15]: 6.3 ± 0.46 nM

C[C@H]1C2Cc3ccc(C(N)=O)cc3[C@@]1(C)CCN2CC1CC1 [Compound 8-CAC, 8-carboxamidocyclazocine]
affinity for μ opioid receptors [4]: high affinity | affinity for κ opioid receptors [5]: high affinity | duration of action [1]: 15 h | antinociception activity ([1]; in vivo, mice): high antinociception activity

C[N+]1(CC2CC2)CC[C@]23c4c5ccc(C(N)=O)c4O[C@H]2C(=O)CC[C@@]3(O)[C@H]1C5 (stereo partly shown) [Compound 4, 3-Carboxamido-naltrexone methiodide]
melting point: 189 to 190 °C | [3H]Naltrindole (δ) inhibition ([6]; @ 10 μm): 31% inh. @ 10 μm | K: δ [3]: 143 | K: μ [3]: 0.18 | Ki [3, 15]: 210 ± 22 nM

C[N@+]1(CC2CC2)CC[C@]23CCCC[C@@]2(O)[C@H]1Cc1ccc(C(N)=O)c(O)c13.[Cl-] [Compound 14, (17R)-17-(Cyclopropylmethyl)-4,14-dihydroxy-17-methylmorphinan-17-ium-3-carboxamide chloride]
effect on morphine's ability to block PGE2-induced diarrhea ([7]; IP administration at 3 mg/kg): reduces morphine's ability to block PGE2-induced diarrhea | difference from baseline, tail flick ([8]; even at 30 mg/kg): no statistical difference from baseline | central activity (hot plate) ([9]; hot plate test): poor central activity | dose at which a statistical difference from baseline is first seen, hot plate ([9]; hot plate test): 30 mg/kg | hot plate dose relative to dose required in the PGE2 test ([9]; hot plate vs PGE2 test): 3 to 10 times higher dose

CC1C2Cc3ccc(C(N)=O)cc3C1(C)CC[N+]2(C)CC1CC1 (stereo not shown) [Compound 10, 8-Carboxamido-cyclazocine methiodide]
melting point: 237 to 238 °C | Ki [10]: 360 ± 6.5 nM | Ki [2]: 1.4 ± 0.19 nM | Ki [3]: 17 ± 1.2 nM | K: δ [3]: 21 | K: μ [3]: 0.082

CC1C2Cc3ccc(O)cc3C1(C)CC[N+]2(C)CC1CC1 (stereo not shown) [Compound 8, Cyclazocine methiodide]
melting point: 165 to 168 °C | K: δ [3]: 95 | K: μ [3]: 0.2

C[N+]1(CC2CC2)CC[C@]23CC(=O)CC[C@@]2(O)[C@H]1Cc1ccc(C(N)=O)c(O)c13 (stereo partly shown) [Compound 6, 3-Carboxamido-4-hydroxy-naltrexone methiodide]
activity in blocking PGE2-induced diarrhea ([7]; mice, doses of 1-10 mg/kg, both routes (IP, PO)): very good activity | reversal of the effects of morphine on PGE2-induced diarrhea ([7]; mice, each route, IP and PO, FIG. 1): dose-dependent reversal of the effects of morphine | blocking the analgesic effects of morphine, tail flick ([8]; mice, IP route): moderately effective | blocking the effects of morphine, tail flick ([8]; mice, oral administration): much less effective | effect on response to morphine, tail flick ([8]; mice, 10 mg/kg): did not affect the response to morphine | effect on response to morphine, tail flick ([8]; mice, maximum dose 30 mg/kg, FIG. 2): only partially reverse | blocking the analgesic effects of morphine, hot plate ([9]; mice, IP route, FIG. 3): marginally effective | change from the baseline morphine response, hot plate ([9]; mice, IP, 3 mg/kg): 20-25% | effect on the response to morphine, hot plate ([9]; mice, orally, doses up to 30 mg/kg): no effect | absorption [11]: low | melting point: 197 to 198 °C | Ki ([6]; read-out: [3H]Naltrindole (δ) Ki, CHO membranes, human receptor, mean ± SEM): 280 ± 21 nM | agonist properties at the κ opioid receptor ([12]; compound alone): did not display any agonist properties | Emax ([12]; compound alone, Mean ± S.E, read-out: Kappa Cmpd. Alone Emax): 3 ± 2.6% | IC50 ([12]; with 100 nM U50,488, Mean ± S.E): 7800 ± 530 nM | Ki [2, 14]: 1.3 ± 0.13 nM | K: μ [3]: 0.17 | Ki [3, 15]: 7.7 ± 0.9 nM | Emax ([13]; read-out: Mu Cmpd. Alone Emax): -0.28 ± 0.39% | IC50 ([13]; read-out: Mu With DAMGO IC50, with 200 nM DAMGO, Mean ± S.E): 52 nM | Mu With DAMGO Imax ([13]; with 200 nM DAMGO, Mean ± S.E): 96 ± 1.2%
